For the experiment, the target named is PD-1/PD-L1 (Homo sapiens (Human), UniProt Q9NZQ7). Kind of experiment: Homogeneous Time-Resolved Fluorescence (HTRF) binding assay. The settings on record: CisBio kit #64CUS000C-1, read-out: IC50 of compounds binding to PD-1/PD-L1. How it is done: Homogeneous Time-Resolved Fluorescence (HTRF) binding assay was used to determine the binding activity of the compound of the present invention to PD-1/PD-L1.
PD-1/PD-L1, sequence (Q9NZQ7 19-238): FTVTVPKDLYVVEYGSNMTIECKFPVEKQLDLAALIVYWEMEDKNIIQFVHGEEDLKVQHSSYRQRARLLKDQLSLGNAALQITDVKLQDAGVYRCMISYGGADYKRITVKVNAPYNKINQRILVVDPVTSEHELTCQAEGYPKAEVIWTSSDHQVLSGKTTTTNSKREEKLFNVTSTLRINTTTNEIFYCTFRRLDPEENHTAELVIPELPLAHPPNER
The purchased kit (CisBio, #64CUS000C-1) contained reagents required for assays such as PD-1, PD-L1, anti-tag1-Eu, Anti-tag2-XL665, Dilute Buffer, and Detection Buffer.
1. The compound was formulated to 10 concentrations with a 3-fold gradient with 100% DMSO.
2. The solution of the compound in DMSO was added to Dilute Buffer, mixed thoroughly, then transferred to a 96-well plate.
3. PD-L1 was diluted with Dilute Buffer, then added to the above 96-well plate.
4. PD-1 was diluted with Dilute Buffer and added to the above 96-well plate, which was then incubated at room temperature for 30 minutes.
5. A portion of anti-tag1-Eu and a portion of anti-tag2-XL665 were added to Detection Buffer, mixed thoroughly and transferred to the above 96-well plate.
6. The mixture in the above 96-well plate was incubated at room temperature for 1 to 24 hours.
7. HTRF values were read with Envision.
Background: Time-resolved FRET reads energy transfer from a long-lived donor to a nearby acceptor.
For `Cc1cc(/C=C/c2cccc(-c3ccc4c(c3)OCCO4)c2C)cc(OCc2cccc(C#N)c2)c1CN1CCC[C@H]1CO` [Compound 1, (S,E)-3-((5-(3-(2,3-Dihydrobenzo[b][1,4]dioxin-6-yl)-2-methylstyryl)-2-((2-(hydroxymethyl)pyrrolidin-1-yl)methyl)-3-methylphenoxy)methyl)benzonitrile], the IC50 stood at 1530 nM.
Next, `COc1cc(C#Cc2cccc(-c3ccccc3)c2C)cc(OC)c1CN1CCC[C@H]1CO` [Compound 2, (S)-(1-(2,6-Dimethoxy-4-((2-methyl-biphenyl-3-yl)ethynyl)benzyl)pyrrolidin-2-yl)methanol]: 1340 nM; `COc1cc(/C=C/c2cccc(-c3ccccc3)c2C)cc(OC)c1CN1CCC[C@H]1CO` [Compound 3, (S,E)-(1-(2,6-Dimethoxy-4-((2-methylbiphenyl-3-yl)vinyl)benzyl)pyrrolidin-2-yl)methanol]: 2700 nM.
In the case of `COc1cc(/C=C/c2cccc(-c3ccccc3)c2C)cc(OC)c1CNCCO` [Compound 4, (E)-2-((2,6-Dimethoxy-4-(2-(2-methylbiphenyl-3-yl)vinyl)benzyl)amino)ethan-1-ol], the IC50 worked out at 280 nM.
Then `COc1cc(/C=C/c2cccc(-c3ccccc3)c2C)cc(OC)c1CNC(CO)CO` [Compound 5, (E)-2-((2,6-Dimethoxy-4-(2-(2-methylbiphenyl-3-yl)vinyl)benzyl)amino)propane-1,3-diol], with 60 nM; and `COc1cc(/C=C/c2cccc(-c3ccccc3)c2C)cc(OC)c1CNCCNC(C)=O` [Compound 6, (E)-N-(2-((2,6-Dimethoxy-4-(2-(2-methylbiphenyl-3-yl)vinyl)benzyl)amino)ethyl)acetamide], with 150 nM; and `Cc1c(/C=C/c2ccc(CN3CCC[C@H]3CO)cc2Cl)cccc1-c1ccccc1` [Compound 11, (S,E)-(1-(3-Chloro-4-(2-(2-methylbiphenyl-3-yl)vinyl)benzyl)pyrrolidin-2-yl)methanol], with 460 nM.
Take `Cc1cc(CN2CCC[C@H]2CO)ccc1/C=C/c1cccc(-c2ccccc2)c1C` [Compound 12]: the IC50 turned out to be 410 nM.
Then `Cc1cc(CN[C@H](C)C(=O)O)ccc1/C=C/c1cccc(-c2ccccc2)c1C` [Compound 13, (R,E)-2-(3-Methyl-4-(2-(2-methylbiphenyl-3-yl)vinyl)benzylamino)propanoic Acid], with 240 nM.
Then `COc1cc(/C=C/c2cccc(-c3ccccc3)c2C#N)cc(OC)c1CN1CCC[C@H]1CO` [Compound 14, (S,E)-3-(4-((2-Hydroxymethylpyrrolidin-1-yl)methyl)-3,5-dimethoxystyryl)biphenyl-2-carbonitrile], with 390 nM; and `COc1cc(/C=C/c2cccc(-c3ccc4c(c3)OCCO4)c2C)cc(OC)c1CN1CCC[C@H]1CO` [Compound 15], with 240 nM.
Then `Cc1c(/C=C/c2ccc(CN3CCC[C@H]3CO)cn2)cccc1-c1ccccc1` [Compound 16, (S,E)-(1-((6-(2-(2-Methylbiphenyl-3-yl)vinyl)pyridin-3-yl)methyl)pyrrolidin-2-yl)methanol], with 590 nM.
For `Cc1c(/C=C/c2ccc(CNCCO)cn2)cccc1-c1ccc2c(c1)OCCO2` [Compound 17, (E)-2-((6-(3-(2,3-Dihydrobenzo[b][1,4]dioxin-6-yl)-2-methylstyryl)pyridin-3-yl)methylamino)ethanol], the IC50 turned out to be 310 nM.
For `Cc1c(/C=C/c2ccc(CNCC(O)CC(=O)O)cn2)cccc1-c1ccc2c(c1)OCCO2` (centres unmarked) [Compound 18, (E)-4-((6-(3-(2,3-Dihydrobenzo[b][1,4]dioxin-6-yl)-2-methylstyryl)pyridin-3-yl)methylamino)-3-hydroxybutanoic Acid], the IC50 stood at 190 nM.
Next, `Cc1cc(CN2CCCC(O)C2C(=O)O)ccc1/C=C/c1cccc(-c2ccccc2)c1C` (centres unmarked) [Compound 19, (E)-3-Hydroxy-1-(3-methyl-4-(2-(2-methylbiphenyl-3-yl)vinyl)benzyl)piperidin-2-carboxylic Acid]: 330 nM; `COC(=O)C1C(O)CCCN1Cc1ccc(/C=C/c2cccc(-c3ccccc3)c2C)c(Cl)c1` (centres unmarked) [Compound 20, (E)-Methyl 1-(3-chloro-4-(2-(2-methylbiphenyl-3-yl)vinyl)benzyl)-3-hydroxypiperidin-2-carboxylate]: over 10000 nM.
Then `Cc1c(/C=C/c2ccc(CN3CCCC(O)C3C(=O)O)cc2F)cccc1-c1ccccc1` (centres unmarked) [Compound 21, (E)-3-Hydroxy-1-(3-fluoro-4-(2-(2-methylbiphenyl-3-yl)vinyl)benzyl)piperid in-2-carboxylic Acid], with 780 nM; and `Cc1cc(CN2CCCC(O)C2CO)ccc1/C=C/c1cccc(-c2ccccc2)c1C` (centres unmarked) [Compound 22, (E)-2-Hydroxymethyl-1-(3-methyl-4-(2-(2-methylbiphenyl-3-yl)vinyl)benzyl)piperidin-3-ol], with 550 nM.
As to `Cc1c(/C=C/c2ccc(CN3CCCC(O)C3CO)cc2Cl)cccc1-c1ccccc1` (centres unmarked) [Compound 23, (E)-2-Hydroxymethyl-1-(3-chloro-4-(2-(2-methylbiphenyl-3-yl)vinyl)benzyl) piperidin-3-ol], the IC50 worked out at 690 nM.
Next, `Cc1c(/C=C/c2ccc(CN3CCCC(O)C3C(N)=O)cc2F)cccc1-c1ccccc1` (centres unmarked) [Compound 24, (E)-1-(3-Fluoro-4-(2-(2-methylbiphenyl-3-yl)vinyl)benzyl)-3-hydroxypiperidin-2-carboxamide]: over 10000 nM; `COC(=O)C1C(O)CCCN1Cc1c(OC)cc(/C=C/c2cccc(-c3ccccc3)c2C)cc1OC` (centres unmarked) [Compound 25, (E)-Methyl 1-(2,6-dimethoxy-4-(2-(2-methylbiphenyl-3-yl)vinyl)benzyl)-3-hydroxypiperidin-2-carboxylate]: 5950 nM.
`Cc1cc(CN2CCC[C@H](O)[C@@H]2C(N)=O)ccc1/C=C/c1cccc(-c2ccccc2)c1C` [Compound 26, (2R,3S,E)-3-Hydroxy-1-(3-methyl-4-(2-(2-methylbiphenyl-3-yl)vinyl)benzyl)piperidin-2-carboxamide]: the IC50 was determined as 1300 nM.
As to `Cc1cc(CN2CCC[C@@H](O)[C@@H]2C(N)=O)ccc1/C=C/c1cccc(-c2ccccc2)c1C` [Compound 27, (2R,3R,E)-3-Hydroxy-1-(3-methyl-4-(2-(2-methylbiphenyl-3-yl)vinyl)benzyl)piperidin-2-carboxamide], the IC50 was determined as 920 nM.
For the molecule `Cc1cc(CN2CCCC(O)C2C(=O)O)ccc1C#Cc1cccc(-c2ccccc2)c1C` (centres unmarked) [Compound 28, 1-(3-Methyl-4-((2-methylbiphenyl-3-yl)ethynyl)benzyl)-3-hydroxypiperidin-2-carboxylic Acid], the IC50 worked out at 2160 nM.
In the case of `Cc1c(C#Cc2ccc(CN3CCCC(O)C3C(=O)O)cc2F)cccc1-c1ccccc1` (centres unmarked) [Compound 29, 1-(3-Fluoro-4-((2-methylbiphenyl-3-yl)ethynyl)benzyl)-3-hydroxypiperidin-2-carboxylic Acid], the IC50 was 2820 nM.
Then `COc1cc(/C=C/c2cccc(-c3ccccc3)c2C)cc(OC)c1CN1CCCC(O)C1C(=O)O` (centres unmarked) [Compound 30, (E)-1-(2,6-Dimethoxy-4-(2-(2-methylbiphenyl-3-yl)vinyl)benzyl)-3-hydroxy piperidin-2-carboxylic Acid], with 460 nM; and `Cc1cc(CNC(CO)CO)ccc1/C=C/c1cccc(-c2ccccc2)c1C` [Compound 31, (E)-2-(3-Methyl-4-(2-(2-methylbiphenyl-3-yl)vinyl)benzylamino)-1,3-propanediol], with 240 nM; and `Cc1c(/C=C/c2ccc(CNC(CO)CO)cc2Cl)cccc1-c1ccccc1` [Compound 32, (E)-2-(3-Chloro-4-(2-(2-methylbiphenyl-3-yl)vinyl)benzylamino)-1,3-propanediol], with 250 nM.
For the molecule `Cc1c(/C=C/c2cc(CN[C@H](CO)C(=O)O)ccc2Cl)cccc1-c1ccccc1` [Compound 35, (R,E)-2-(4-Chloro-3-(2-(2-methylbiphenyl-3-yl)vinyl)benzylamino)-3-hydroxypropionic Acid], the IC50 stood at 250 nM.
Then `Cc1ccc(CN[C@H](CO)C(=O)O)cc1/C=C/c1cccc(-c2ccccc2)c1C` [Compound 36, (R,E)-2-(4-Methyl-3-(2-(2-methylbiphenyl-3-yl)vinyl)benzylamino)-3-hydroxypropionic Acid], with 100 nM; and `COc1cc(/C=C/c2cccc(-c3ccccc3)c2C)cc(OC)c1CNCC(=O)O` [Compound 37, (E)-2-(2,6-Dimethoxy-4-(2-(2-methylbiphenyl-3-yl)vinyl)benzylamino)acetic Acid], with 100 nM.
`Cc1cc(CN[C@H](CO)C(=O)O)ccc1/C=C/c1cccc(-c2ccccc2)c1C` [Compound 38, (R,E)-2-(3-Methyl-4-(2-(2-methylbiphenyl-3-yl)vinyl)benzylamino)-3-hydroxypropionic Acid]: the IC50 was 230 nM.
Next, `COc1nc(/C=C/c2cccc(-c3ccccc3)c2C)ccc1CNCCNC(C)=O` [Compound 39, (E)-N-(2-(((2-methoxy-6-(2-(2-methylbiphenyl)vinyl)pyridin-3-yl)methyl)amino)ethyl)acetamide]: 170 nM; `COc1nc(/C=C/c2cccc(-c3ccccc3)c2C)ccc1CNC(CO)CO` [Compound 40]: 90 nM.
For `COc1nc(/C=C/c2cccc(-c3ccccc3)c2C)ccc1CN[C@H](CO)C(=O)O` [Compound 41, (R,E)-3-Hydroxy-2-((2-methoxy-6-(2-(2-methylbiphenyl-3-yl)vinyl)pyridin-3-yl)methylamino)propanoic Acid], the IC50 is 5090 nM.

Source of the values: patent US11078192B2, “Aromatic acetylene or aromatic ethylene compound, intermediate, preparation method, pharmaceutical composition and use thereof” (GUANGZHOU MAXINOVEL PHARMACEUTICALS CO., LTD., priority 2016, dated 2021).
